{
  "source": "patent US20150105329A1",
  "about": "“Methods and Pharmaceutical Compositions for Prevention or Treatment of Ischemia Related Organ Damage” (INSERM (Institut National de la Sante et de la Recherche …, priority 2012, published 2015)",
  "key": {"[1]": {"tested_on": "myocardial ischemia/reperfusion injury", "assay": "Myocardial ischemia/reperfusion injury, infarct size", "assay_type": "in vivo, C57/Bl6J mice", "conditions": "for decrease of infarct size vs saline: 30 min ischemia, 3 h reperfusion, p<0.05 vs saline", "procedure": "Adult C57/Bl6J mice of 12-15 weeks old (20-30 g) were anesthetized with sodium pentobarbital (60 mg/kg, i.p.). The animals were intubated and ventilated with 100% oxygen (200 μl/breath at a rate of 170 breaths/min), using a Harvard rodent ventilator (Model 845, Harvard Apparatus, Les Ulis, France). Body temperature was monitored with a rectal probe connected to a digital thermometer, and maintained at 37° C. using a heating pad. A catheter was inserted into the jugular vein for bolus injection of drug (0.01 ml/10 g BW, 10-20 sec). The electrocardiogram (ECG) was recorded throughout the experiments on a Gould TA240 recorder (ECG biotech; Gould Instruments, Cleveland, Ohio, USA). A left thoracotomy was performed to expose the heart, and the pericardium was removed. The left anterior descending coronary artery was occluded with an 8.0 prolene suture, 2 mm from the tip of the left atrium for 30 min. Successful coronary occlusion was verified by the development of a pale color in the distal myocardium and by ST segment elevation and QRS widening on the ECG. After 30 min of sustained ischemia, coronary blood flow was restored by loosening the suture. Successful reperfusion was confirmed by visualization of hyperaemic response and restoration of normal ECG. The lungs were then reinflated by increasing positive end expiratory pressure, and the chest was closed. Reperfusion was maintained for a 3-h period. Drugs dissolved in isotonic saline were injected 5 minutes before reperfusion. B2 receptor agonist was administrated at different non hypotensive dosages as defined in preliminary experiments. To ensure the role of specific activation of B2 receptor, B2 agonist was tested with pretreatment by B2R antagonist (HOE140). After reperfusion, the chest was reopened, the coronary artery was reoccluded, and 0.5 ml of a 5% Evans blue solution was injected as a bolus into the jugular vein in order to delineate the area at risk (AR), which remained unstained by the Evans blue. The heart was excised, and the left ventricle (LV) was isolated, weighed, and sliced into 4 transverse pieces from base to apex, the first cutter blade being positioned at the site of the coronary occlusion. The slices were weighed, and color digital images of both sides of each slice were obtained with a Power Shot S50 zoom digital camera (Canon, Tokyo, Japan) connected to a microscope (Leica M Z 75; Leica Microsystems, Rueil-Malmaison, France), using the Adobe Photoshop software (Adobe Systems, San Jose, Calif., USA). The slices were then incubated at 37° C. with buffered 1% 2,3,5-triphenyltetrazolium chloride (TTC) solution for 20 min. Viable myocardium, which contained dehydrogenases, reacted with TTC and was stained brick red, whereas any necrotic tissue remained unstained due to the lack of active enzymes. The tissue sections were then fixed in a buffered 10% formalin solution for 24 h before being photographed again to delineate the IS. The cross-sectional area, the lumen area, the AR (unstained by Evans blue), and IS (unstained by TTC) of the LV were outlined on each color image and quantified by a masked observer using the Scion Image software (Scion Image for Windows; http://www.scioncorp.com). The absolute weights of AR and IS were then calculated for each slice. The sum of the absolute weight values of AR and IS of the 3 ischemic slices of each heart was calculated and expressed as a percentage of the total weight of the slice. The ratio of IS to AR was calculated from these absolute weight evaluations and expressed as a percentage of AR."}, "[2]": {"tested_on": "hindlimb ischemia in streptozotocin-diabetic mice", "assay": "Peripheral (hindlimb) ischemia in diabetic mice, neovascularization", "assay_type": "in vivo, C57BL/6J mice", "procedure": "Two-to three-month-old male C57BL/6J mice were used. Type 1 diabetes was induced by 5 daily ip injections of low-dose of streptozotocin (50 mg/kg dissolved in 0.05M sodium citrate buffer, pH 4.5). Ischemia of hinlimb was induced by permanent ligation of the right femoral artery once the diabetes is established (hyperglycemia >300 mg/dl, 4 weeks after streptozocin injections). Mice were anesthetized by isoflurane inhalation (0.8% in oxygen stream) and the proximal part of the femoral artery just below the origin of the circumflexa femoris lateralis was occluded with a silk suture. Concomitantly with the surgery, half the mice was treated with the B2 agonist (30 nmol/kg·h^−1), infused continuously through osmotic minipumps implanted subcutaneously. The other half of the mice was infused with the vehicle (isotonic saline). Healthy mice, non diabetic without ischemia were used as control.\nTwo weeks after the onset of ischemia, neovascularization was evaluated by two methods. —Arteries were quantified by high definition microangiography using barium sulfate and digital X-ray transducer. Mice were anesthetized (Pentobarbital injection, 60 mg/kg, I.P.) and longitudinal laparatomy was performed to introduce a polyethylene catheter into the abdominal aorta to inject contrast medium (Barium sulfate, 1 mg/ml). Images (two per animal) were acquired using a high-definition digital X-ray transducer. Vessel density was expressed as a percentage of pixels per image occupied by vessel density in the quantification area. —Capillary density was analyzed by immunohistochemistry using fibronectin-FITC antibody. Frozen tissue sections (7 μm) from calf muscle were incubated with rabbit polyclonal antibody directed against total fibronectin (dilution 1:50) to identify capillaries. The number of capillary by field was determined in both ischemic and nonischemic legs. Results are expressed as ischemic to nonischemic ratio."}, "[3]": {"biological_target": "T1, hB2R (Homo sapiens, UniProt P30411)", "T1 sequence (P30411 1-391)": "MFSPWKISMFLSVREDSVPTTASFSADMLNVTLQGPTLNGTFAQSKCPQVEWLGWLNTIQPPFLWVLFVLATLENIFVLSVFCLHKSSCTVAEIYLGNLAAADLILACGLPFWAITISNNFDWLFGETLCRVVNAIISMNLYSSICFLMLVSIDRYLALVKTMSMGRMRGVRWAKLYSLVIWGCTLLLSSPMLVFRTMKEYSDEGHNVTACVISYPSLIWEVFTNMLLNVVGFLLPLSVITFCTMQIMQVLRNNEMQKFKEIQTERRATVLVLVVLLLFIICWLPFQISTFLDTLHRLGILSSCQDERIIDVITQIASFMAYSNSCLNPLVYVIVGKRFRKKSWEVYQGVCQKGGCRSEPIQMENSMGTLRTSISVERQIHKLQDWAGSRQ", "conditions": "naturally expressed and recombinant hB2R; cited from earlier work"}, "[4]": {"biological_target": "T1, hB2R", "conditions": "naturally expressed and recombinant hB2R; cited from earlier work", "remark": "listed apart in the source"}, "[5]": {"conditions": "cited from earlier work"}, "[6]": {"conditions": "30 nmol/kg·h s.c. osmotic minipump, 14 days of ischemia"}},
  "data": [
    {"substance": "HOE140", "values": [
      {"measurement": "effect on infarct size", "setting": "[1]; antagonist given alone", "result": "no effect on infarct size"},
      {"measurement": "effect on cardioprotection by B2 agonist", "setting": "[1]; pretreatment with B2R antagonist before B2 agonist", "result": "suppressed the cardioprotective effect of B2 agonist"}
    ]},
    {"substance": "[Hyp(3), Thi(5), (N)Chg(7), Thi(8)]-BK [peptide 20]", "values": [
      {"measurement": "decrease of infarct size vs saline", "setting": "[1]; 0.01 nmol/kg i.v. bolus 5 min before reperfusion", "result": "−37.2", "unit": "%"},
      {"measurement": "decrease of infarct size vs saline", "setting": "[1]; 0.1 nmol/kg i.v. bolus 5 min before reperfusion", "result": "−47.3", "unit": "%"},
      {"measurement": "decrease of infarct size vs saline", "setting": "[1]; 0.3 nmol/kg i.v. bolus 5 min before reperfusion", "result": "−35.6", "unit": "%"},
      {"measurement": "infarct size relative to area at risk", "setting": "[1]; acute administration, FIG. 1", "result": "Reducing effect"},
      {"measurement": "angiographic score", "setting": "[2]; [6]", "result": "increase"},
      {"measurement": "capillary density", "setting": "[2]; [6]", "result": "increase"},
      {"measurement": "angiogenic effect", "setting": "[2]; chronic administration 30 nmol/kg·h, FIG. 2", "result": "proangiogenic effect"},
      {"measurement": "in vitro affinities compared with bradykinin", "setting": "[3]", "result": "greater"},
      {"measurement": "in vitro potencies compared with bradykinin", "setting": "[4]", "result": "greater"},
      {"measurement": "potency and duration of action in vivo compared with bradykinin", "setting": "[5]", "result": "highly superior to bradykinin"}
    ]}
  ]
}
